Data from BindingDB's records for doi:10.1021/acsmedchemlett.8b00532 (Sapienza University of Rome, 2019).

Assay: Inhibition of NHERF1 in human SW620 cells expressing NHERF1 assessed as inhibition cell growth incubated for 72 hrs by MTT assay

Work on `Cc1cc([N+](=O)[O-])ccc1NS(=O)(=O)c1cc(Cl)ccc1Cl` yielded an IC50 of 19 µM.
